The source of these data is patent US11731967B2, “Inhibitors of TRIM33 and methods of use” (Dana-Farber Cancer Institute, Inc., priority 2017, dated 2023).

Structures are written as SMILES. Read-outs that look alike come from different tables or passages of the source.

For assay [1], the target named is T1, recombinant PHD-bromodomain module of TRIM33 (Homo sapiens, UniProt Q9UPN9).
T1 construct: rows headed: TRIM33 modulating activity; unit not given
T1 sequence (Q9UPN9 1-1127): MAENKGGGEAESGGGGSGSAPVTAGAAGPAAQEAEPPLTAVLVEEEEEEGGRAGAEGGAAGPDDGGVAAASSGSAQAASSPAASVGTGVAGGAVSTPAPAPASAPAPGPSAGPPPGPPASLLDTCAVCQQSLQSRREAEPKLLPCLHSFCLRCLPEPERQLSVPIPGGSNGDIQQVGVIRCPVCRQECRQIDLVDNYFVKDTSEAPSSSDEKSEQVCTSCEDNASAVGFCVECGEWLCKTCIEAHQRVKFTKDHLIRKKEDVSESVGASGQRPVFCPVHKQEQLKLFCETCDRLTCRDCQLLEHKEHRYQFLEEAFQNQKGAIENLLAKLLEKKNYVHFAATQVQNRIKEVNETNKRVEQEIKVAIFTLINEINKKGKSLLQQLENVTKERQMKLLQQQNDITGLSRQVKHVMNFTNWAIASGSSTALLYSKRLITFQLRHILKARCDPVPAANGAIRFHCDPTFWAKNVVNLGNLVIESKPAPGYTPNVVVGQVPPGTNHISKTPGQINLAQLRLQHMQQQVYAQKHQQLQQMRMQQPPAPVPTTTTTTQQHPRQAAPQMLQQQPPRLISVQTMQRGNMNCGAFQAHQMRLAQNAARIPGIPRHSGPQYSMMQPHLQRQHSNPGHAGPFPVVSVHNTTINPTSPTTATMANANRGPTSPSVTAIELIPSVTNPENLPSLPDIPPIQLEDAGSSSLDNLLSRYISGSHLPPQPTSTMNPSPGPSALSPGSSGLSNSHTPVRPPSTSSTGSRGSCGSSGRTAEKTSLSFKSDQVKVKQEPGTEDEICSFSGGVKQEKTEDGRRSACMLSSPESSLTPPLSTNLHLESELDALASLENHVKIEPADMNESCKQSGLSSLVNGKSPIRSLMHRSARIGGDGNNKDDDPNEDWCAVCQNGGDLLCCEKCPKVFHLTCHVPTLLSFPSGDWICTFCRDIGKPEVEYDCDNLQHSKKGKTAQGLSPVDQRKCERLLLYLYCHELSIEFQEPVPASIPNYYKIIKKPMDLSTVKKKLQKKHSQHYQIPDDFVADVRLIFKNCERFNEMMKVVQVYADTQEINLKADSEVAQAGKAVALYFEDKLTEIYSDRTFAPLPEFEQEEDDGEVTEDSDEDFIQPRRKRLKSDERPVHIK
Briefly: AlphaScreen binding assay, TRIM33 with biotinylated H3K9me3K18ac peptide. The text has this: (§1) The IC50 or EC50 of the compound of the present application can be determined by various methods known in the art. For example, the IC50 or EC50 of the compound of the present application can be measured by an AlphaScreen assay, as described herein (see FIG. 1).
(§2) A compound of the present application can be tested for its TRIM33 and/or TRIM24 activity with AlphaScreen Assay illustrated in FIG. 1.
(§3) Additionally, a second AlphaScreen® binding assay for TRIM24 as counter-screening assay for selectivity of TRIM33 over TRIM24 was developed. A focused compound libraries for TRIM33 inhibitor development was designed and synthesized using the design principle that is to connect the bromodomain binding motif/fragment to proper chemical scaffold via multi-component reactions, such as Groebke-Blackburn-Bienaymé (GBB) coupling reaction, to establish chemically bias library.
(§4) With multiple libraries synthesized (˜400 compounds) as described above, compounds were screened against TRIM33 and TRIM24 by AlphaScreen to establish structure activity relationship (SAR).
Background: Bead proximity is the source of the signal in Alpha formats.

Assay [2] relates to recombinant PHD-bromodomain module of TRIM33. The assay is described as above. The conditions noted are these: compounds shown in Table 2a.
Excerpt: as §1, §2, §3, §4

Assay [3] deals with T2, TRIM24 (Homo sapiens, UniProt O15164).
T2 sequence (O15164 1-1050): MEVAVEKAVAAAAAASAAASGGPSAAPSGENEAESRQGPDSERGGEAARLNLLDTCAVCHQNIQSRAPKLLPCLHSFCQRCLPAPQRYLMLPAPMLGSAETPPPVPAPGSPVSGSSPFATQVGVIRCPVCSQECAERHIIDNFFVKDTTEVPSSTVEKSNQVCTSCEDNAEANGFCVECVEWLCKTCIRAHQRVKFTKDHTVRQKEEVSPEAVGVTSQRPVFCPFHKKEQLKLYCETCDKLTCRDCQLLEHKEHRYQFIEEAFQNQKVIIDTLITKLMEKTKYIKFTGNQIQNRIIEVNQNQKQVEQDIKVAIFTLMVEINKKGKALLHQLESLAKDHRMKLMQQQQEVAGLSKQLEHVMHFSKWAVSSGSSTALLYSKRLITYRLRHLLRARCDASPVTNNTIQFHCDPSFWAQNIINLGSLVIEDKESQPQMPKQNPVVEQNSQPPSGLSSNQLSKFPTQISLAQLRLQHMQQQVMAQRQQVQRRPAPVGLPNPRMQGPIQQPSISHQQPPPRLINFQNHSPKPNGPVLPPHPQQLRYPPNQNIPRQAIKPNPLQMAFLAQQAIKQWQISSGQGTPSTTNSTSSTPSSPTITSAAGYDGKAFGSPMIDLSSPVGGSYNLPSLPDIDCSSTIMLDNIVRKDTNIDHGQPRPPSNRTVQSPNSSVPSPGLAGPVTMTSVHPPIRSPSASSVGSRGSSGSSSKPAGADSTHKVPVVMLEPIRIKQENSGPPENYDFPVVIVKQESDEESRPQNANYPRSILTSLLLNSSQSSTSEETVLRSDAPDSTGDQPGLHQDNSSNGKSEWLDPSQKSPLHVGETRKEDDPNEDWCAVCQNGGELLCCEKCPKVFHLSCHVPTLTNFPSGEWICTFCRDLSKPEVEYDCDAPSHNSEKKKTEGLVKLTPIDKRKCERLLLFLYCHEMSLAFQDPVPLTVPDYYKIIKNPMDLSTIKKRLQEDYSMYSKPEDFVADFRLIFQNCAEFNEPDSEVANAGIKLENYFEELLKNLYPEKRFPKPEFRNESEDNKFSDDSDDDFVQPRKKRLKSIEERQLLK
Nature of the assay: AlphaScreen binding assay for TRIM24 (counter-screening assay).
Excerpt: as §2, §3, §4

Consider `COc1ccc(CCNc2c(-c3nc[nH]c3C)nc3cnccn23)cc1OC` [Compound B8], for which the IC50 in assay [1] (compounds shown in Table 2a, called TRIM33 IC50 in title of Table 5, unit inferred, read-out: TRIM33 modulating activity) stood at 44200 nM; in assay [1] (compounds with R7/R7′ shown in FIG. 11A (Table 6), read-out: IC50 TRIM33), 283 nM; in assay [3] (compounds with R7/R7′ shown in FIG. 11A (Table 6), read-out: IC50 TRIM24) it was 225 nM. In addition, the “Ratio of TRIM24 IC50 over TRIM33 IC50” value in assay [2] turned out to be 1276.41.
As to `COC(=O)c1ccc2nc(-c3cn(S(=O)(=O)c4ccc(C)cc4)c4ccccc34)c(NCc3ccccc3)n2c1` [pck-9295-175], the IC50 in assay [1] (compounds shown in FIG. 14A (Table 8), read-out: TRIM 33 IC50) amounted to 320 nM; in assay [3] (compounds shown in FIG. 14A (Table 8), read-out: TRIM 24 IC50), 415 nM.
